Like-named read-outs stand apart in the source and are kept apart here.
Assays:
human NPR1 = molecular target: T1, human NPR1 (Homo sapiens, UniProt P16066); test: Cellular cGMP production assay, human NPR1 expressing CHO-K1 cells (CisBio HTRF); assay type: cell-based; conditions: for AC50: cGMP production, 30 min at 37° C., 12-point dose-response from 30 μM; for Human NPR1 Amax (% of ANP): maximum cGMP production as percentage of the maximum cGMP produced with ANP
T1 construct: host or cells: CHO-K1
T1 sequence (P16066 33-1061): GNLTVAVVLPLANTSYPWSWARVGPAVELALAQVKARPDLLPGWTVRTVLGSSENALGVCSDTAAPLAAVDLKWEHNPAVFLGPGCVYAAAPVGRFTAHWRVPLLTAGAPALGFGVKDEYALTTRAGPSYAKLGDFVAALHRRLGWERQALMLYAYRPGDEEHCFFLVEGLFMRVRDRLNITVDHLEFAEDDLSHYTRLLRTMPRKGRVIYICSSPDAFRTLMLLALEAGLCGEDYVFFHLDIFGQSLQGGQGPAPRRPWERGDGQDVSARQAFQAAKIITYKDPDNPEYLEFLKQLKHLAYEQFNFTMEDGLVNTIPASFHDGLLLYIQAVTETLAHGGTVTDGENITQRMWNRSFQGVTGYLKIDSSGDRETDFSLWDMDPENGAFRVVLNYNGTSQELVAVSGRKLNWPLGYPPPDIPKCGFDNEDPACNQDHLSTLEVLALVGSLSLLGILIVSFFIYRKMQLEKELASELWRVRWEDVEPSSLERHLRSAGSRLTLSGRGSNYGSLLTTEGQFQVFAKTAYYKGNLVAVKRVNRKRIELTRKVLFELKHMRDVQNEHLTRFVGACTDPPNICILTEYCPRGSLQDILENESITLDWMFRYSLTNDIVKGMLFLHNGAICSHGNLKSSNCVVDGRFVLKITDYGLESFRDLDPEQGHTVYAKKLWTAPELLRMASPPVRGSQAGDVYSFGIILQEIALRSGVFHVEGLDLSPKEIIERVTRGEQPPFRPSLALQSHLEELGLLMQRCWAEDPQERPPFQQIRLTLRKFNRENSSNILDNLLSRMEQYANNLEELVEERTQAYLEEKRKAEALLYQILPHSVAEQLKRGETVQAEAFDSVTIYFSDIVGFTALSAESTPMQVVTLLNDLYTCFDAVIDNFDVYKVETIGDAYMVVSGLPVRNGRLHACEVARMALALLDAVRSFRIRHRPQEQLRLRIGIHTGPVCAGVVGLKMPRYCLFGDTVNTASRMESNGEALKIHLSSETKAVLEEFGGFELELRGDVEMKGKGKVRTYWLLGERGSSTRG
Outline: (§1)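 Cells receive IBMX (1 mM) assay buffer plus test compound over twelve threefold dilutions starting at 30 μM, and cGMP accumulates for 30 min at 37 °C. Lysates are then incubated one hour at room temperature with d2-labelled cGMP and cryptate-labelled antibody before time-resolved fluorescence reading.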

monkey NPR1 = monkey NPR1 (Macaca fascicularis, UniProt A0A7N9DBT9); test: Cellular cGMP production assay, monkey NPR1 expressing CHO-K1 cells (CisBio HTRF); assay type: cell-based; conditions: for Monkey NPR1 Amax (% of ANP): maximum cGMP production as percentage of the maximum cGMP produced with ANP
Sequence of monkey NPR1 (A0A7N9DBT9 entry or part of it): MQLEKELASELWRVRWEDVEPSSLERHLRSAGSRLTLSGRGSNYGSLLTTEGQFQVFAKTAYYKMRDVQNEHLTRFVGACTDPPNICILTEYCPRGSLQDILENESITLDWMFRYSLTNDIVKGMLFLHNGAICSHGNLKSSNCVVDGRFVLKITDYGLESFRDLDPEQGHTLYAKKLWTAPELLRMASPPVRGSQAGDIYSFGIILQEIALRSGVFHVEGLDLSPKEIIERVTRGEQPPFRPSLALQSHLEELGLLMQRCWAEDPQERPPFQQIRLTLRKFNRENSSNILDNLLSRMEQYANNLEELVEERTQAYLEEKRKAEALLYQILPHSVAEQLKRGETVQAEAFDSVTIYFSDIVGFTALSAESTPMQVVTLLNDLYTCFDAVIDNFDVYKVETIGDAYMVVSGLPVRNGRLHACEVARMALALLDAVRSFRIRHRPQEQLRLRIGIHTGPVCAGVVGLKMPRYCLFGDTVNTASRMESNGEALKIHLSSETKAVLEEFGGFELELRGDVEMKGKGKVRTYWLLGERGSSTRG
Outline: as §1

[1] = cGMP production, monkey NPR1 CHO-K1 cells, 30 min at 37° C., 12-point dose-response from 30 μM, read-out: Monkey NPR1 AC50

## CC[C@@H](N(C)c1nc2c(c(N[C@@H](CN3C4CCCC3CC4)c3cnn(C)c3)n1)C[C@H](c1ccc(F)cc1)CC2)C12CC(C(=O)O)(C1)C2 [Compound 25, 3-((1R)-1-(((6R)-4-(((1R)-2-(8-azabicyclo[3.2.1]octan-8-yl)-1-(1-methyl-1H-pyrazol-4-yl)ethyl)amino)-6-(4-fluorophenyl)-5,6,7,8-tetrahydroquinazolin-2-yl)(methyl)amino)propyl)bicyclo[1.1.1]pentane-1-carboxylic acid]
Human NPR1
  AC50: 126 nM
  Human NPR1 Amax (% of ANP): 102.816 % of ANP
Monkey NPR1
  AC50: 108 nM
Monkey NPR1; monkey NPR1 CHO-K1 cells
  Monkey NPR1 Amax (% of ANP): 106.072 % of ANP

## CC[C@@H](Nc1nc2c(c(N[C@@H](CN3C4CCCC3CC4)c3scnc3C)n1)C[C@H](c1cccc(F)c1)CC2)[C@H]1CC[C@H](C(=O)O)CC1 [Compound 26, (1R,4r)-4-((1R)-1-(((6R)-4-(((1S)-2-(8-azabicyclo[3.2.1]octan-8-yl)-1-(4-methylthiazol-5-yl)ethyl)amino)-6-(3-fluorophenyl)-5,6,7,8-tetrahydroquinazolin-2-yl)amino)propyl)cyclohexane-1-carboxylic acid]
Human NPR1
  AC50: 131 nM
  Human NPR1 Amax (% of ANP): 115.149 % of ANP
Monkey NPR1
  AC50: 91 nM
Monkey NPR1; monkey NPR1 CHO-K1 cells
  Monkey NPR1 Amax (% of ANP): 102.667 % of ANP

## CC[C@@H](N(C)c1nc2c(c(N[C@@H](CN3C4CCCC3CCC4)c3cnn(C)c3)n1)C[C@](C)(c1ccccc1)CC2)C12CC(C(=O)O)(C1)C2 [Compound 27, 3-((R)-1-(((R)-4-(((R)-2-((1S,5S)-9-azabicyclo[3.3.1]nonan-9-yl)-1-(1-methyl-1H-pyrazol-4-yl)ethyl)amino)-6-methyl-6-phenyl-5,6,7,8-tetrahydroquinazolin-2-yl)(methyl)amino)propyl)bicyclo[1.1.1]pentane-1-carboxylic acid]
Human NPR1
  AC50: 137 nM
  Human NPR1 Amax (% of ANP): 92.458 % of ANP
Monkey NPR1
  AC50: 137 nM
Monkey NPR1; monkey NPR1 CHO-K1 cells
  Monkey NPR1 Amax (% of ANP): 102.654 % of ANP

## CC[C@@H](N(C)c1nc2c(c(N[C@@H](CN3C4CCCC3CC4)c3cnn(C)c3)n1)C[C@](C)(c1ccccc1)CC2)C12CC(C(=O)O)(C1)C2 [Compound 28, 3-((1R)-1-(((6R)-4-(((1R)-2-(8-azabicyclo[3.2.1]octan-8-yl)-1-(1-methyl-1H-pyrazol-4-yl)ethyl)amino)-6-methyl-6-phenyl-5,6,7,8-tetrahydroquinazolin-2-yl)(methyl)amino)propyl)bicyclo[1.1.1]pentane-1-carboxylic acid]
Human NPR1
  AC50: 139 nM
  Human NPR1 Amax (% of ANP): 103.247 % of ANP
Monkey NPR1
  AC50: 134 nM
Monkey NPR1; monkey NPR1 CHO-K1 cells
  Monkey NPR1 Amax (% of ANP): 105.314 % of ANP

## CC[C@H]([C@H]1CC[C@H](C(=O)O)CC1)N(C)c1nc2c(c(N[C@@H](CN3C4CCCC3CCC4)c3cnn(C)c3)n1)C[C@H](c1cccc(F)c1)CC2 [Compound 29, (1R,4r)-4-((R)-1-(((R)-4-(((R)-2-((1S,5S)-9-azabicyclo[3.3.1]nonan-9-yl)-1-(1-methyl-1H-pyrazol-4-yl)ethyl)amino)-6-(3-fluorophenyl)-5,6,7,8-tetrahydroquinazolin-2-yl)(methyl)amino)propyl)cyclohexane-1-carboxylic acid]
Human NPR1
  AC50: 140 nM
  Human NPR1 Amax (% of ANP): 102.911 % of ANP
Monkey NPR1
  AC50: 137 nM
Monkey NPR1; monkey NPR1 CHO-K1 cells
  Monkey NPR1 Amax (% of ANP): 128.079 % of ANP

## CC[C@@H](Nc1nc2c(c(N[C@@H](CN3CCCCC3)c3cnn(CC)c3)n1)C[C@H](c1cccc(F)c1)CC2)[C@H]1CC[C@H](C(=O)O)CC1 [Compound 30, (1R,4r)-4-((R)-1-(((R)-4-(((R)-1-(1-ethyl-1H-pyrazol-4-yl)-2-(piperidin-1-yl)ethyl)amino)-6-(3-fluorophenyl)-5,6,7,8-tetrahydroquinazolin-2-yl)amino)propyl)cyclohexane-1-carboxylic acid]
Human NPR1
  AC50: 140 nM
  Human NPR1 Amax (% of ANP): 99.863 % of ANP
Monkey NPR1; [1]
  AC50: 77 nM
Monkey NPR1; monkey NPR1 CHO-K1 cells
  Monkey NPR1 Amax (% of ANP): 99.091 % of ANP

## CC[C@H]([C@H]1CC[C@H](C(=O)O)CC1)N(C)c1nc2c(c(N[C@@H](CN3C4CCCC3CC4)c3cnn(C)c3)n1)C[C@H](c1ccc(F)cc1)CC2 [Compound 31, (1R,4r)-4-((1R)-1-(((6R)-4-(((1R)-2-(8-azabicyclo[3.2.1]octan-8-yl)-1-(1-methyl-1H-pyrazol-4-yl)ethyl)amino)-6-(4-fluorophenyl)-5,6,7,8-tetrahydroquinazolin-2-yl)(methyl)amino)propyl)cyclohexane-1-carboxylic acid]
Human NPR1
  AC50: 144 nM
  Human NPR1 Amax (% of ANP): 92.978 % of ANP
Monkey NPR1
  AC50: 89 nM
Monkey NPR1; monkey NPR1 CHO-K1 cells
  Monkey NPR1 Amax (% of ANP): 100.914 % of ANP

## CC[C@@H](Nc1nc2c(c(N[C@@H](CN3CCC[C@H](C)C3)c3cnn(C)c3)n1)C[C@H](c1ccccc1)CC2)[C@H]1CC[C@H](C(=O)O)CC1 [Compound 32, (1R,4r)-4-((R)-1-(((R)-4-(((R)-1-(1-methyl-1H-pyrazol-4-yl)-2-((S)-3-methylpiperidin-1-yl)ethyl)amino)-6-phenyl-5,6,7,8-tetrahydroquinazolin-2-yl)amino)propyl)cyclohexane-1-carboxylic acid]
Human NPR1
  AC50: 144 nM
  Human NPR1 Amax (% of ANP): 99.842 % of ANP
Monkey NPR1; [1]
  AC50: 84 nM
Monkey NPR1; monkey NPR1 CHO-K1 cells
  Monkey NPR1 Amax (% of ANP): 92.720 % of ANP

## CC[C@H]([C@H]1CC[C@H](C(=O)O)CC1)N(C)c1nc2c(c(N[C@@H](CN3C4CCCC3CC4)c3cnn(C)c3)n1)C[C@H](c1cccc(F)c1)CC2 [Compound 33, (1R,4r)-4-((1R)-1-(((6R)-4-(((1R)-2-(8-azabicyclo[3.2.1]octan-8-yl)-1-(1-methyl-1H-pyrazol-4-yl)ethyl)amino)-6-(3-fluorophenyl)-5,6,7,8-tetrahydroquinazolin-2-yl)(methyl)amino)propyl)cyclohexane-1-carboxylic acid]
Human NPR1
  AC50: 145 nM
  Human NPR1 Amax (% of ANP): 99.163 % of ANP
Monkey NPR1
  AC50: 104 nM
Monkey NPR1; monkey NPR1 CHO-K1 cells
  Monkey NPR1 Amax (% of ANP): 106.934 % of ANP

## CC[C@H]([C@H]1CC[C@H](C(=O)O)CC1)N(C)c1nc2c(c(N[C@@H](CN3C4CCCC3CC4)c3cnn(C)c3)n1)C[C@](C)(c1ccccc1)CC2 [Compound 34, (1R,4r)-4-((1R)-1-(((6R)-4-(((1R)-2-(8-azabicyclo[3.2.1]octan-8-yl)-1-(1-methyl-1H-pyrazol-4-yl)ethyl)amino)-6-methyl-6-phenyl-5,6,7,8-tetrahydroquinazolin-2-yl)(methyl)amino)propyl)cyclohexane-1-carboxylic acid]
Human NPR1
  AC50: 146 nM
  Human NPR1 Amax (% of ANP): 95.375 % of ANP
Monkey NPR1
  AC50: 91 nM
Monkey NPR1; monkey NPR1 CHO-K1 cells
  Monkey NPR1 Amax (% of ANP): 100.553 % of ANP

## CC[C@H]([C@H]1CC[C@H](C(=O)O)CC1)N(C)c1nc2c(c(N[C@@H](CN3CCC[C@H](COC)C3)c3cnn(C)c3)n1)C[C@H](c1cccc(F)c1)CC2 [Compound 35, (1R,4r)-4-((R)-1-(((R)-6-(3-fluorophenyl)-4-(((R)-2-((S)-3-(methoxymethyl)piperidin-1-yl)-1-(1-methyl-1H-pyrazol-4-yl)ethyl)amino)-5,6,7,8-tetrahydroquinazolin-2-yl)(methyl)amino)propyl)cyclohexane-1-carboxylic acid]
Human NPR1
  AC50: 148 nM
  Human NPR1 Amax (% of ANP): 92.607 % of ANP
Monkey NPR1; [1]
  AC50: 127 nM
Monkey NPR1; monkey NPR1 CHO-K1 cells
  Monkey NPR1 Amax (% of ANP): 104.934 % of ANP
